{"source": "patent US8980952B2", "about": "“Methods for treating brain swelling with a compound that blocks a non-selective cation channel” (University of Maryland, Baltimore, priority 2002, dated 2015)", "key": {"[1]": {"test_system": "native reactive astrocytes (NRAs)", "format": "cell-based, rat"}, "[2]": {"test_system": "native reactive astrocytes (NRAs)", "assay": "Cell blebbing and swelling after ATP depletion (SEM, phase contrast microscopy)", "format": "cell-based, rat"}, "[3]": {"test_system": "native reactive astrocytes (NRAs)", "assay": "Current clamp recording of membrane potential, nystatin-perforated patch", "format": "cell-based, rat"}, "[4]": {"test_system": "native reactive astrocytes (NRAs)", "assay": "Necrotic/apoptotic cell death by propidium iodide and annexin V staining", "format": "cell-based, rat"}, "[5]": {"assay": "Rodent model of stroke, glibenclamide vs. saline by subcutaneous mini-pump", "format": "in vivo, rat"}, "gliotic capsule": {"test_system": "gliotic capsule", "conditions": "for GFAP response / gliotic capsule: glibenclamide 1 μM or diazoxide 10 μM at 0.5 μl/hr × 7 days"}, "[6]": {"assay": "Thromboembolic (TE) MCA stroke model", "format": "in vivo, rat", "conditions": "for Infarct volume, percent of hemisphere volume: 75 ng/hr"}, "[7]": {"assay": "Thromboembolic stroke with tPA reperfusion at 6 hr, hemorrhagic conversion", "format": "in vivo, rat", "conditions": "24 hr after stroke, co-treated with tPA 10 mg/kg i.v. at 6 hr; loading dose 1.5 μg/kg i.v. plus s.c. pump"}, "MMP-9 & MMP-2": {"test_system": "MMP-9 & MMP-2", "assay": "Zymography of gelatinase activity of recombinant enzyme and stroke tissue", "format": "biochemical", "conditions": "glibenclamide 10 μM; MMP inhibitor II 300 nM", "protocol": "Activation of MMP-9 & MMP-2 in stroke tissue was compared to controls. […] Calbiochem). Next, the supernatants underwent a gelatinase purification process with gelatin-Sepharose 4B (Pharmacia), and Zymography was performed on the purified supernatants in sodium dodecyl sulfate gels containing gelatin (Rosenberg, 1994). Dried gels were scanned with a transparency scanner, and images were analyzed by densitometry. The relative lysis of an individual sample was expressed as the integrated density value of its band and divided by the protein content of the sample."}, "SUR1": {"test_system": "SUR1", "assay": "SUR1 knockdown by antisense oligodeoxynucleotide infusion at gelfoam implantation site", "format": "in vivo, rat", "conditions": "ODN infused 14 days; vs. scrambled sequence ODN"}, "[8]": {"conditions": "glibenclamide 1 μM with Na azide 1 mM"}}, "note": "“And” between values parts separate entries of the source, which are not always exact repeats. Equal entries are not always repeated. “Also recorded” adds a separate entry of the source. Where two headings read alike, the source gives them in different places.", "data": [{"molecule": "Nc1ccncc1", "note": "[4-AP, 4-aminopyridine]", "values": [{"measurement": "Outward current remaining in presence of charybdotoxin", "setting": "[1]", "value": "further blocked"}]}, {"molecule": "[N-]=[N+]=[N-]", "note": "[NaN3, Sodium azide]", "values": [{"measurement": "Time to apparent blebbing after exposure", "setting": "[2]", "value": "10 to 15 min and 7 to 10 min"}, {"measurement": "Em after depolarization", "setting": "[3]", "value": "−4.3±0.9", "unit": "mV"}]}, {"molecule": "CC[N+](CC)(CC)CC.[Cl-]", "note": "[TEA, tetraethylammonium chloride]", "values": [{"measurement": "Block of large outward currents", "setting": "[1]", "value": "partially blocked"}]}, {"molecule": "CC1=NS(=O)(=O)c2cc(Cl)ccc2N1", "note": "[diazoxide]", "values": [{"measurement": "Blebbing with channel opener alone", "setting": "[2]; no ATP depletion", "value": "blebbing occurs even without ATP depletion; also recorded: developed progressive blebbing consistent with cytotoxic edema"}, {"measurement": "Necrotic death by channel opener", "setting": "[4]", "value": "necrotic death can also be induced by diazoxide"}]}, {"molecule": "COc1ccc(Cl)cc1C(=O)NCCc1ccc(S(=O)(=O)NC(=O)NC2CCCCC2)cc1", "note": "[glibenclamide]", "values": [{"measurement": "3-day mortality after stroke", "setting": "[5]; rat, in vivo, sc", "value": 28, "unit": "%"}, {"measurement": "Excess water in stroke hemisphere", "setting": "[5]; vs. saline-treated rats, n=5 per group", "value": "only half as much excess water"}, {"measurement": "Blebbing on NaN3 in presence of glibenclamide", "setting": "[2]; pretreated cells, observed 30 min", "value": "does not cause blebbing; also recorded: remained phase bright with no pathological deterioration"}, {"measurement": "GFAP response / gliotic capsule", "setting": "gliotic capsule", "value": "well defined gliotic capsule"}, {"measurement": "GFAP response / gliotic capsule", "setting": "gliotic capsule; listed as Glibenclamide", "value": "reduced the overall injury response"}, {"measurement": "Inflammatory response / PMN infiltration", "setting": "gliotic capsule; infusion into site of gelatin sponge", "value": "minimized the inflammatory response"}, {"measurement": "Infarct volume, percent of hemisphere volume", "setting": "[6]; 2 days after MCAO", "value": "16.7±2.2", "unit": "%"}, {"measurement": "Stroke volume, percent of hemisphere volume", "setting": "[6]; 48 hr after stroke, 10 male rats per group", "value": "15.5±2.3", "unit": "%"}, {"measurement": "Infarct volume, percent of hemisphere volume", "setting": "[6]; 7 days after MCAO", "value": "15.2±1.2", "unit": "%"}, {"measurement": "Stroke volume vs. saline at 48 hr", "setting": "[6]; begun 2 hr after stroke, loading dose 3.3 μg/kg i.p.", "value": "significant reduction in stroke volume"}, {"measurement": "Stroke volume vs. saline at 48 hr", "setting": "[6]; begun 4 hours after MCAO, loading dose 3.3 μg/kg i.p.", "value": "not statistically significant"}, {"measurement": "Stroke volume vs. saline at 48 hr", "setting": "[6]; begun 4 hours after MCAO, loading dose 33.0 μg/kg i.p. with glucose 1 gm/kg", "value": "statistically significant reductions in stroke volume"}, {"measurement": "Stroke volume vs. saline at 48 hr", "setting": "[6]; begun 6 hours after MCAO, loading dose 33.0 μg/kg i.p. with glucose 1 gm/kg", "value": "statistically significant reductions in stroke volume"}, {"measurement": "Stroke volume vs. saline at 48 hr", "setting": "[6]; infusion 75 ng/hr begun immediately after stroke, no loading dose", "value": "significant reduction in stroke volume"}, {"measurement": "Animals with hemorrhagic conversion", "setting": "[7]", "value": "1 of 6 and ⅕"}, {"measurement": "annexin V labeling (apoptotic death)", "setting": "[4]; [8]", "value": "not significantly different"}, {"measurement": "number of PI-positive cells (necrotic death)", "setting": "[4]; [8]", "value": "dramatically decreased; also recorded: largely prevented"}, {"measurement": "Reduction of edema with added glucose", "setting": "8 hr after MCAO, supplemental glucose 1 gm/kg i.p. at 4 hr", "value": "just as effective in reducing edema"}, {"measurement": "Rise of water in involved hemisphere", "setting": "8 hr after stroke, saline 3.4%", "value": 2.0, "unit": "%"}, {"measurement": "Rise of water in TTC(+) tissue", "setting": "8 hr after stroke, saline 5.4%", "value": 2.5, "unit": "%"}, {"measurement": "Water in TTC(−) tissue of involved hemisphere", "setting": "8 hr after stroke, saline 78.7±1.0%", "value": "78.6±0.4", "unit": "%"}, {"measurement": "Water content of involved hemisphere", "setting": "8 hr after stroke, saline 81.3±0.5%, control hemisphere 77.9±0.2%", "value": "79.9±0.3", "unit": "%"}, {"measurement": "Water in TTC(+) tissue of involved hemisphere", "setting": "8 hr after stroke, saline 83.4±1.1%", "value": "80.5±0.3", "unit": "%"}, {"measurement": "Serum glucose", "setting": "rat, in vivo", "value": "93 ± 3", "unit": "mg/dL"}, {"measurement": "Mortality during 7 days after MCA stroke", "setting": "rat, in vivo, sc", "value": 24, "unit": "%"}, {"measurement": "Gelatinase activity", "setting": "MMP-9 & MMP-2", "value": "did not directly inhibit gelatinase activity"}]}, {"molecule": "OC[C@@H](O)[C@@H](O)[C@H](O)[C@H](O)CO", "note": "[mannitol]", "values": [{"measurement": "Delay of bleb formation after exposure to NaN3", "setting": "[2]; 50 mM mannitol, 350 mOsm", "value": "> 30", "unit": "min"}, {"measurement": "Effect on NaN3-induced depolarization", "setting": "[3]; 50 mM mannitol", "value": "neither the time course nor the magnitude of the depolarization is affected"}]}, {"molecule": "C[C@@H]1O[C@@H](O[C@H]2C[C@@H](O)[C@]3(CO)[C@H]4[C@H](O)C[C@]5(C)[C@@H](C6=CC(=O)OC6)CC[C@]5(O)[C@@H]4CC[C@]3(O)C2)[C@H](O)[C@H](O)[C@H]1O", "note": "[ouabain]", "values": [{"measurement": "Depolarization", "setting": "[3]; 1 mM ouabain", "value": "small reversible depolarization"}]}, {"molecule": "SUR1KD: SUR1 antisense oligodeoxynucleotide 5′-GGCCGAGTGGTTCTCGGT-3′ (SEQ ID NO: 9) (DNA, backbone not given here)", "values": [{"measurement": "Membrane blebbing after Na azide", "setting": "[2]; cells from SUR1KD", "value": "not observed"}, {"measurement": "SUR1 expression in gliotic capsule (immunoblot)", "setting": "SUR1", "value": "significant reduction in SUR1 expression"}, {"measurement": "Depolarization on application of Na azide", "setting": "[3]", "value": "8.7±1.7", "unit": "mV"}]}, {"molecule": "charybdotoxin: toxin partially blocking large conductance Ca2+-activated K+ channel currents", "values": [{"measurement": "Block of large outward currents", "setting": "[1]", "value": "partially blocked"}]}, {"molecule": "iberiotoxin: toxin partially blocking large conductance Ca2+-activated K+ channel currents (QFTDVDCSVSKECWSVCKDLFGVDRGKCMGKKCRCYQ)", "values": [{"measurement": "Block of large outward currents", "setting": "[1]", "value": "partially blocked"}]}]}
